Values joined by “and” are separate entries in the source; they are usually repeats but may differ in a detail not shown here. Equal values may be shown once. Read-outs that look alike come from different tables or passages of the source.
Assays:
[1] = molecular target: T1, human liver cytosolic AOX1 (Homo sapiens, UniProt Q06278); test: Effects of a competing AOX1 substrate and a competitive AOX1 inhibitor on AOX1 inactivation; type: biochemical; design: Enzymatic reaction was initiated by adding human liver cytosol (100 μg); tissue Corning, Inc. (Gentest brand) 452115; host or cells: human liver cytosol, pool of 150 donors; settings: human liver cytosol; for effect of O^6-benzylguanine on extent of AOX1 inactivation: O^6-benzylguanine 120, 240 (480) μM; for effect of O^6-benzylguanine on extent of AOX1 inactivation / effect of gefitinib on extent of AOX1 inactivation: carbazeran 4-oxidation; for effect of gefitinib on extent of AOX1 inactivation: gefitinib 3, 10, 30 μM
T1 sequence (Q06278 1-1338): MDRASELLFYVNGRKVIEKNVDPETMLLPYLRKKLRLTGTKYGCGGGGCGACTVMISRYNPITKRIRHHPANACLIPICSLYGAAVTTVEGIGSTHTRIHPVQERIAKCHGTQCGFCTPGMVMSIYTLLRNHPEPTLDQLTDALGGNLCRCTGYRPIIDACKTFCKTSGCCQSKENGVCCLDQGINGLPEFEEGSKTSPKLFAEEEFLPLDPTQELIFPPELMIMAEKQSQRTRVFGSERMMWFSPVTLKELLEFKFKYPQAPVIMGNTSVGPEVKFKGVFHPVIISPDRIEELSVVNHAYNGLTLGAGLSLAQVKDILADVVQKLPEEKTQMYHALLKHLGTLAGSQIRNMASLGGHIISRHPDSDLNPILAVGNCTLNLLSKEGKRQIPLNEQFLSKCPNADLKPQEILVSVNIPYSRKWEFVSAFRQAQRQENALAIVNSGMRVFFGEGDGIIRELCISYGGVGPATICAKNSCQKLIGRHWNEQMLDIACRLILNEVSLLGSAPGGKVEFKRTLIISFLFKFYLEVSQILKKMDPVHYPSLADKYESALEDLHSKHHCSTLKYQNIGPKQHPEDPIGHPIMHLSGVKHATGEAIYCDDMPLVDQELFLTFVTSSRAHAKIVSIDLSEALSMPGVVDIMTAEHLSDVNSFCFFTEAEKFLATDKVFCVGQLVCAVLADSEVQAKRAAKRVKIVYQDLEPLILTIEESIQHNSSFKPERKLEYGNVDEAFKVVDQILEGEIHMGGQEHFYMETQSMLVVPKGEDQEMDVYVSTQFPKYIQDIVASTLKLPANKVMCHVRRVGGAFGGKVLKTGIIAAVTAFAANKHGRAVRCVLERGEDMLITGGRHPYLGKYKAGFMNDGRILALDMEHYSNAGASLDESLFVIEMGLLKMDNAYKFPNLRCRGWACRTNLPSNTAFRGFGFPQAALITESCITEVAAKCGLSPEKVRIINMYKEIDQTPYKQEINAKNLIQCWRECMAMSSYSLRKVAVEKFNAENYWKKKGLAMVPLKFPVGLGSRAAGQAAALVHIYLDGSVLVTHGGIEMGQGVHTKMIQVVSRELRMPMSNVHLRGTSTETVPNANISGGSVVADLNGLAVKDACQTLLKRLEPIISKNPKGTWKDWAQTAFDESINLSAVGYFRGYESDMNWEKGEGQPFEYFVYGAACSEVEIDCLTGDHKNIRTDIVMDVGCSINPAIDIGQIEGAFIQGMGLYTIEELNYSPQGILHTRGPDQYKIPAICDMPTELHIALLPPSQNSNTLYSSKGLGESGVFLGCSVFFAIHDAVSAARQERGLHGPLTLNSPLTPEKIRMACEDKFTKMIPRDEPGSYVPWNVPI
Protocol: The molar ratio of O^6-benzylguanine (120, 240, and 480 μM) to 3-vinylerlotinib (10 μM) was 12, 24, and 48, O^6-benzylguanine to 4′-methylerlotinib (3 μM) was 40, 80, and 160, and O^6-benzylguanine to 2-methylerlotinib (1 μM) was 120, 240, and 480, respectively. […] Each standard incubation mixture was subjected to the same procedures as described in Enzyme Inactivation Experiments. The residual AOX1 enzyme activity was determined by the carbazeran 4-oxidation or O^6-benzylguanine 8-oxidation assay.

[2] = molecular target: T1, human liver cytosolic AOX1; test: Enzyme inactivation of human liver cytosolic AOX1-mediated carbazeran 4-oxidation; settings: for kinact: human liver cytosol 100 μg, carbazeran 15 μM, 37 °C; for Experimental Log KI: log of KI
Protocol: Carbazeran 4-oxidation and O^6-benzylguanine 8-oxidation were deployed as AOX1-selective catalytic markers.[27] The assay conditions (amount of cytosolic protein, incubation time, and substrate concentration) for carbazeran 4-oxidation catalyzed by human recombinant AOX1 and human/rat/mouse liver cytosols were optimized previously.[7]^,[25]
Enzymatic reaction was initiated by adding human liver cytosol (100 μg). After the specified preincubation duration, an aliquot (10 μL) of the preincubation mixture was transferred to 190 μL of a prewarmed (for 3 minutes at 37 °C) secondary incubation mixture (total volume of 200 μL) containing potassium phosphate buffer and carbazeran (15 μM) or O^6-benzylguanine (150 μM), which yielded a 20-fold dilution of the primary incubation mixture. The secondary incubation mixture was incubated for 5 minutes at 37 °C before the enzymatic reaction was terminated with 200 μL of ice-cold acetonitrile containing carbazeran-d4 (2.5 nM final concentration; internal standard for 4-oxo-carbazeran) or tolbutamide (25 nM final concentration; internal standard for 8-oxo-O^6-benzylguanine). Each sample was immediately mixed by vortex, placed on ice, centrifuged at 16,000g for 15 minutes at 4 °C and stored at –30 °C until ultra-high performance liquid chromatography–tandem mass spectrometry (UPLC-MS/MS) analysis. For enzyme inactivation assays involving rat and mouse liver cytosol and recombinant AOX1 assays, the experimental conditions were similar to those of human liver cytosol, except that the amount of cytosolic protein was 200 μg (rat) and 150 μg (mouse), respectively, and the incubation time of the secondary incubation mixture was 60 minutes. For the recombinant AOX1 enzyme assay, the amount of enzyme was 100 μg, the incubation time of the secondary incubation mixture was 15 minutes, and the total volume of the primary and secondary incubation mixtures was reduced to 100 μL.
Preliminary experiments were performed to optimize the incubation time and concentration of an inactivator to ensure a log-linear decrease in enzyme activity over time and that the kobs versus inactivator concentration plot reaches a plateau for the determination of the kinact value. The observed first-order rate constant for inactivation (kobs), maximal inactivation rate constant (kinact), half-maximal inactivation concentration (KI), and the time required for half of the enzyme molecules to be inactivated (t1/2) were calculated as described in our previous publication.[28]

[3] = Human plasma concentrations after erlotinib dosing (literature)
[4] = half-maximal inactivation concentration, human liver cytosol, carbazeran 4-oxidation
[5] = human liver cytosol, carbazeran 4-oxidation
[6] = read-out: KI,u, unbound, KI,u = fu × KI, fu at 10 μM in human liver cytosol
[7] = human liver cytosol, 10 μM (raloxifene 0.02 μM), 30-minute preincubation
[8] = human liver cytosol, inactivator 1.5 μM alone, 6-minute preincubation

SMILES | effect of O^6-benzylguanine on extent of AOX1 inactivation [1] | effect of gefitinib on extent of AOX1 inactivation [1] | KI, fold higher compared with erlotinib ([2]; Table 1 values) | kinact, decrease compared with erlotinib ([2]; Table 1 values) | kinact/KI ratio, decrease compared with erlotinib ([2]; Table 1 values) | t1/2, fold longer compared with erlotinib ([2]; Table 1 values) | Ki [2, 4] | kinact [2] | Inactivation t1/2 [2, 5] | kinact/KI [2, 5] | Ki [2, 6] | decrease in carbazeran 4-oxidation [2, 7] | Experimental Log KI ([2]; human liver cytosol) | Cmax,u ([3]; in vivo) | decrease in carbazeran 4-oxidation [2, 8] | also measured
C#Cc1cccc(Nc2nc(C)nc3cc(OCCOC)c(OCCOC)cc23)c1 [2-Methylerlotinib, 2-methylerlotinib] | attenuated | attenuated | 1.5 fold | 26% | 51% | 1.3 fold | 4 ± 0.27 µM | 0.84 ± 0.10∗∗ min^–1 | 0.83 ± 0.11 min | 0.21 ± 0.01∗∗∗ min^–1μM^–1 | 2.04 ± 0.14 µM | – | – | – | – | –
C=Cc1cccc(Nc2ncnc3cc(OCCOC)c(OCCOC)cc23)c1 [3-Vinylerlotinib, 3-vinylerlotinib] | attenuated | attenuated | ~11 fold | – | – | approximately 3.5 fold | 30.6 ± 9.6 µM | 0.33 ± 0.07∗∗∗ min^–1 | 2.14 ± 0.47∗ min | – | 23.9 ± 7.53 µM | 84% | 1.5 ± 0.15∗∗∗ μM | – | – | kinact, fold lower compared with erlotinib ([2]; Table 1 values): approximately 3.5 fold; kinact/KI ratio, fold lower compared with erlotinib ([2]; Table 1 values): ~43 fold; decrease in carbazeran 4-oxidation ([2]; human liver cytosol, 6 minutes of preincubation (data not shown)): did not decrease
C#Cc1cc(Nc2ncnc3cc(OCCOC)c(OCCOC)cc23)ccc1C [4′-Methylerlotinib, 4′-methylerlotinib] | attenuated | attenuated | – | 88% | 70% | 8.5 fold | 1.03 ± 0.27 µM | 0.14 ± 0.03∗∗∗ min^–1 | 5.29 ± 1.19∗∗∗ min | 0.13 ± 0.02∗∗∗ min^–1μM^–1 | 0.75 ± 0.2 µM | – | – | – | – | KI, decrease compared with erlotinib ([2]; Table 1 values): 62%
C#Cc1cccc(Nc2ncnc3cc(OCCOC)c(OCCOC)cc23)c1 [Erlotinib] | attenuated | – | – | – | – | – | – | – | 0.62 ± 0.09 min | – | – | – | – | – | – | decrease in carbazeran 4-oxidation in the presence of gefitinib ([1]; inactivator 1.5 μM + 3 μM gefitinib): 73%; decrease in carbazeran 4-oxidation in the presence of gefitinib ([1]; inactivator 1.5 μM + 10 μM gefitinib): 55%; decrease in carbazeran 4-oxidation in the presence of gefitinib ([1]; inactivator 1.5 μM + 30 μM gefitinib): 47%; Cmax,u ([3]; Cmax,u = plasma fu × Cmax, plasma fu = 0.07): 310 to 380 nM
C#Cc1cccc(Nc2ncnc3cc(OCCOC)c(OCCO)cc23)c1 [O-Desmethylerlotinib, O-desmethylerlotinib] | attenuated | attenuated | – | – | – | – | – | 1.05 ± 0.06 min^–1 | 0.66 ± 0.04 min | 0.21 ± 0.04∗∗∗ min^–1μM^–1 | 4.41 ± 1.04 µM | 99% | 0.71 ± 0.11∗ μM | 7.7 to 20 nM | 69% and 79% and 80% | KI (inactivation) ([2]; read-out: KI, half-maximal inactivation concentration, human liver cytosol, carbazeran 4-oxidation): 5.23 ± 1.24 µM
C#Cc1cccc(Nc2ncnc3cc(OCCO)c(OCCO)cc23)c1 [O-Didesmethylerlotinib, O-didesmethylerlotinib] | attenuated | attenuated | – | – | – | – | 1.98 ± 0.2 µM | 1.00 ± 0.04 min^–1 | 0.70 ± 0.03 min | 0.50 ± 0.03∗∗ min^–1μM^–1 | 1.67 ± 0.17 µM | 99% | 0.30 ± 0.04 μM | 0.1 to 0.8 nM | 90% and 89% and 92% | –

Source: paper PMC12881681 (Molecular Pharmacology, 2025)
